Values joined by “and” are separate entries in the source; they are usually repeats but may differ in a detail not shown here. Equal entries are not always repeated.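 Values below derive from 48-hour exposures of cells grown in 96-well plates, with endpoints linearly interpolated between the two concentrations bracketing the appropriate inhibition level. Abbreviation: GI50, concentration required for 50% inhibition of growth. Definition used: TGI = concentration required for complete inhibition of growth.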

Holding throughout (experiment): growth of human tumour cells (NCI), 48 h
In test [1] the test system is MALME-3M melanoma.
Test [2] has as its system UACC-62 melanoma.
Test [3] deals with TK-10 renal.
Test [4] concerns M14 melanoma.
Test [5] concerns SW-620 colon.
Test [6] has as its system SK-MEL-5 melanoma.
Test [7] deals with HCT-15 colon.
The test system of test [8] is T-47D breast.
In test [9] the test system is PC-3 prostate.
For test [10], the system named is MDA-MB-231 breast.

For `COC(=O)C1=CC2OC13CC1CCC3(C2=O)C1(C)C` (centres undefined), the TGI in [1] is 28.5 µM; in test [2], 30.6 µM; in test [3], 22.6 µM; in test [4], 28.3 µM; in test [5] it was 19.4 µM; in [6], 30.7 µM. Also, in test [7], the TGI was 18.9 µM.
Turning to `CCC(=C(c1ccc(OCc2ccccc2)cc1)c1ccc(OCc2ccccc2)cc1)c1ccc(OC)cc1`, the TGI in [1], in test [2], in [3], in test [4], in test [5] and in [6] was > 100 µM throughout. The TGI in [7] was > 100 µM.
On to `CCOC(=O)C1=C(C)N(NC(=O)c2ccccc2)C2(O)CCCC12C(=O)OCC` (centres undefined), for which the TGI in test [1], in [2], in test [4], in test [5], in test [6] and in test [7] was > 100 µM throughout.
With `Cc1ccc(S(=O)(=O)N/N=C(\C(=O)Nc2cccc([N+](=O)[O-])c2)c2nc3ccc([N+](=O)[O-])cc3[nH]c2=O)cc1`, the TGI in test [1], in test [2], in test [4], in [5], in test [6] and in [7] was > 100 µM each time.
As for `CC(C)=CCC/C(C)=C/CC/C(=C/COP(=O)(OCc1ccc([N+](=O)[O-])o1)N(C)CCCCCl)C(C)(C)C` (centres undefined), the GI50 in test [2] is 9.21 µM; in test [8], 16.4 µM; in test [3], 1.72 µM; in test [4], 2.69 µM; in test [5] it was 3.07 µM; in [6], 3.29 µM. Also, the GI50 was 1.66 µM in [7] and 0.43 µM in test [9]. Moreover, the TGI was 23.5 µM in test [2]; 51.5 µM in test [8]; 22.2 µM in [3]; 11.8 µM in test [4]; 8.57 µM in test [5]; 11.4 µM in [6]. Moreover, the values for the TGI in test [7], in test [9] and in test [10] were 6.79 µM, 15.1 µM and 1.03 µM, respectively.
As to `COC(=O)C1C(=O)O[C@@H](c2ccc(OC)cc2OC)C1C(=O)OC` (some centres undefined), the TGI in [1], in [2], in test [3], in [4], in test [5] and in test [6] was > 100 µM in each case. Moreover, the TGI in [7] was > 100 µM.
Consider `Clc1ccc2nc(CCSCCc3nc4ccc(Cl)cc4[nH]3)[nH]c2c1`, for which the TGI in test [2] is 19.2 µM; in test [3] it was 22.1 µM; in [4], 26.5 µM; in [5] it was 27 µM; in test [6], 18.4 µM; in test [7] it was 26.5 µM.
In the case of `Cn1c2cccc3nnc4cccc(c4c32)n1C`, the TGI in test [1], in [2], in test [4], in test [5], in test [6] and in test [7] was > 100 µM each time.
As for `O=C(CC1(O)C(=O)Nc2c(Cl)cc(Cl)cc21)c1ccc2ccccc2c1` (centres undefined), the TGI in [1] is 19.7 µM; in test [2], 14.6 µM; in [3] it was 27.9 µM; in [4], 16.6 µM; in test [5] it was 14.7 µM; in [6], 18.8 µM. In addition, the TGI in [7] is 14.2 µM.
Consider `Cc1ccc2[nH]c(=O)c(C(C#N)c3ccccc3)nc2c1` (centres undefined), for which the TGI in test [1] was > 100 µM; in test [2] it was 75.1 µM; in test [3], > 100 µM; in test [4] it was > 100 µM; in [5], > 100 µM; in test [6], 57.8 µM. For the same compound, in test [7], the TGI was > 100 µM.
Take `CCC[CH2][Sn]([CH2]CCC)([S]C1=NCCS1)[S]C1=NCCS1`: the GI50 in test [1] is 0.157 µM; in [2], 0.177 µM; in [3], 0.39 µM; in [4] it was 0.315 µM; in test [5], 0.145 µM; in test [6], 0.452 µM. Besides, in [7], the GI50 was 0.338 µM. Besides, the TGI stood at 0.555 µM in test [1]; 0.814 µM in [2]; 1.11 µM in [3]; 1.24 µM in test [4]; 0.441 µM in [5]; 1.76 µM in test [6]. Also, the TGI in test [7] came out at 1.74 µM.
With `O=C1c2ccccc2C(=O)c2nc(-c3ccccc3)c(-c3ccccc3)nc21`, the TGI in test [1] is > 100 µM; in test [2] it was > 100 µM; in [3], > 100 µM; in [4], > 100 µM; in test [5], > 100 µM; in [6], 8.2 µM. In addition, the TGI in [7] is > 100 µM.
As to `O=C(C=Nc1ccccc1C(=O)[O-])c1cccs1.O=C(C=Nc1ccccc1C(=O)[O-])c1cccs1.[Cu+2]`, the TGI in test [1], in test [2], in [3], in test [4], in test [5] and in [7] was > 100 µM in each case.
For `C=CCN(N=O)C(=O)N(CCC)CCCCC(NC(C)=O)C(=O)NCc1ccccc1` (centres undefined), the TGI in [1], in test [2], in test [3], in [4], in test [5] and in test [6] was > 100 µM each time. For the same compound, the TGI in [7] is > 100 µM.
On to `COc1ccc2c(c1)[n+]([O-])c(-c1nc3ccccc3s1)c(N)[n+]2[O-]`, for which the TGI in [1], in test [4], in test [5], in test [6] and in [7] was > 100 µM throughout.
For `CCOC(=O)/C=C1\Nc2ccccc2-n2nnnc21`, the TGI in test [1] was > 100 µM; in test [2], > 100 µM; in test [3] it was > 100 µM; in [4], > 100 µM; in [5], 58.6 µM; in test [6] it was > 100 µM. In test [7], the TGI is > 100 µM.
Regarding `Cc1ccc(C2=NO[C@@H]3C(=O)N(c4ccc(Cc5ccc(N6C(=O)[C@H]7C(c8ccc(C)cc8)=NO[C@H]7C6=O)cc5)cc4)C(=O)[C@H]23)cc1`, the TGI in test [1], in test [2], in test [3], in [4], in [5] and in test [6] was > 100 µM throughout. The TGI in test [7] is > 100 µM.
`CSC(=S)NNC(=O)c1ccncc1`: the TGI is 35.3 µM in test [1]; 31.1 µM in [2]; 75.6 µM in test [3]; 42.3 µM in test [4]; 23.6 µM in test [5]; 62.6 µM in test [6]. This compound displayed a TGI in test [7] of 28.3 µM.
In the case of `CC(=O)Nc1ccc(/C=C/C(=O)c2sc(C(N)=S)nc2C)cc1`, the TGI in [1], in test [2], in test [3], in test [5], in [6] and in test [7] was > 100 µM each time.
For `Nc1ccn([C@@H]2C=C(CO)[C@@H](O)[C@H]2O)c(=O)n1`, the TGI was 135 µM and 224 µM in test [2]; 261 µM in test [8]; 431 µM in test [3]; 303 µM and > 625 µM in test [5]; 406 µM and 379 µM in [6]; 483 µM and > 625 µM in test [7]. Also, the TGI in test [9] and in test [10] was 500 µM in each case. In addition, the GI50 was 0.581 µM in test [8], 0.184 µM in [3], 0.329 µM in test [4] and 0.413 µM in test [10].
Take `CCCCCCCCCC(=O)OCC1OC(n2cc(F)c(=O)[nH]c2=O)C(N)C(OC(=O)CCCCCCCCC)C1O` (centres undefined): the TGI is 35.2 µM in test [1]; 32.7 µM in [2]; > 100 µM in test [3]; 34.3 µM in test [4]; 31.8 µM in [5]; 37.4 µM in test [6]. For the same compound, the TGI in test [7] came out at 34.7 µM.
Consider `COc1ccccc1NC(=O)C1=C(C)NC(C)=C(C(=O)Nc2ccccc2OC)C1c1ccccc1OC`, for which the TGI in test [1], in test [2], in [3], in test [4], in test [5] and in [6] was > 100 µM each time. In [7], the TGI is > 100 µM.
As to `CC1C(=O)N(C)C2(CO)C(=O)O[C@H](C)C12O` (some centres undefined), the TGI in test [1], in test [2], in [3], in [4], in test [6] and in test [7] was > 100 µM throughout.
Consider `O=C(CC(=O)C(F)(F)F)c1csc2ccccc12`, for which the TGI in test [1] is 67.6 µM; in test [2] it was > 100 µM; in [3], 28.4 µM; in test [4], 68.9 µM; in test [5] it was > 100 µM; in [6] it was > 100 µM. In addition, the TGI in test [7] is > 100 µM.
As for `COC(=O)C1=CC2OC1(C)C1(CC1)C2=O` (centres undefined), the TGI worked out at 27.8 µM in [1], 29.1 µM in test [4], 34 µM in test [5] and 40 µM in [7].
For the compound `COc1ccc(OC)c2cc(C3(C)SCCCS3)ccc12`, the TGI in test [1], in test [2], in test [3], in test [4], in [5] and in [6] was > 100 µM each time. For the same compound, the TGI in test [7] is > 100 µM.
With `Cc1c(CCl)c(=O)oc2c(C)c3occ(CCl)c(=O)c3cc12`, the TGI in test [1] was > 100 µM; in [2], 30.3 µM; in test [3], > 100 µM; in test [4], 37.5 µM; in test [5] it was > 100 µM; in test [6], > 100 µM. Moreover, the TGI in [7] was 64.6 µM.
`O=C(O)/C(Cl)=C(\Cl)C(=O)Nc1ccccc1`: the TGI in test [1], in test [2], in [3], in test [4], in test [5] and in test [6] was > 100 µM throughout. Further, the TGI in [7] is > 100 µM.
Regarding `CC1C2=CC=C(O2)C(C)(C)C2=CC=C(O2)C(C)(C)C2=CC=C(O2)C(C)(C)C2=CC=C1O2`, the TGI in test [1], in test [3], in test [5] and in test [7] was > 100 µM throughout.
Consider `Cc1c(Cl)ccc2c1NC(=O)C2(O)C1Cc2ccccc2C1=O` (centres undefined), for which the TGI in test [1], in test [2], in test [3], in test [4], in test [5] and in [6] was > 100 µM each time. Also, the TGI in test [7] was > 100 µM.
Turning to `Cc1cc(C)n(-c2c(O)ccc(O)c2-n2nc(C)cc2C)n1`, the TGI in test [1], in test [2], in test [3], in [4], in test [5] and in test [6] was > 100 µM throughout. Besides, in [7], the TGI was > 100 µM.
Take `Nc1nc(N)c(-c2ccc(Cl)cc2)c(CCC(=O)Nc2cccc(C(F)(F)F)c2)n1`: the TGI in test [1], in [2], in test [3], in test [4], in test [5] and in test [6] was > 100 µM throughout. The TGI in test [7] was > 100 µM.
As for `CN=S(=O)(C[C@]1(O)CC2OC1C1OC(C)(C)OC21)c1ccccc1` (some centres undefined), the TGI in test [1], in test [2], in test [3], in [4], in [5] and in test [6] was > 100 µM in each case. Also, the TGI in test [7] is > 100 µM.
Turning to `CCN(CC)c1ccc2c(c1)N=C1N=CC=CN1C2(c1ccc(N(C)C)cc1)c1ccc(N(C)C)cc1`, the TGI in test [1] came out at 27.4 µM; in test [2], 24.1 µM; in test [3], 28.6 µM; in test [4], 10.5 µM; in test [6] it was 26.7 µM; in test [7], 28.1 µM.

Values taken from PubChem BioAssay (NCI).
